The target in one experiment is BRD4 (BDI_K57-E168) (Homo sapiens (Human), UniProt O60885). The experiment in a line: TR-FRET bromodomain binding assay, BRD4 first bromodomain. Conditions: His-tagged BD1, Alexa647-labeled probe 100 nM. In short, it runs like this: (§1)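 Probe displacement, TR-FRET: 8 nM His-BRD4 domain, 1 nM Eu-anti-His, Alexa647 BET-inhibitor probe 100 nM (BDI)/30 nM (BDII); 20 mM Na phosphate pH 6.0, 50 mM NaCl, 1 mM DTT; cpd 50 μM-0.85 nM, 3-fold; 1 h RT; Ex 340/[…]; IC50 → Ki.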

The target of a further experiment is BRD4 (BDII_E352-M457) (Homo sapiens (Human), UniProt O60885). As to the kind of experiment: TR-FRET bromodomain binding assay, BRD4 second bromodomain. As to conditions: His-tagged BD2, Alexa647-labeled probe 30 nM. An outline of the steps:
as §1

As for `Cc1ccc(CNc2cccc(Oc3ccc(S(C)(=O)=O)cc3-c3cn(C)c(=O)c4[nH]ccc34)c2)c(C)c1` [Example 70, 4-[2-{3-[(2,4-dimethylbenzyl)amino]phenoxy}-5-(methylsulfonyl)phenyl]-6-methyl-1,6-dihydro-7H-pyrrolo[2,3-c]pyridin-7-one], the Ki at BRD4 (BDI_K57-E168) came to 16 nM; on BRD4 (BDII_E352-M457) it was 6.5 nM.
The corresponding values for `Cn1cc(-c2cc(S(C)(=O)=O)ccc2Oc2cccc(NCc3ccccc3C#N)c2)c2cc[nH]c2c1=O` [Example 71, 2-[({3-[2-(6-methyl-7-oxo-6,7-dihydro-1H-pyrrolo[2,3-c]pyridin-4-yl)-4-(methylsulfonyl)phenoxy]phenyl}amino)methyl]benzonitrile] are 33 nM and 19 nM.
Turning to `Cn1cc(-c2cc(S(C)(=O)=O)ccc2Oc2cccc(NCc3ccc(F)cc3Cl)c2)c2cc[nH]c2c1=O` [Example 72, 4-[2-{3-[(2-chloro-4-fluorobenzyl)amino]phenoxy}-5-(methylsulfonyl)phenyl]-6-methyl-1,6-dihydro-7H-pyrrolo[2,3-c]pyridin-7-one], the Ki at BRD4 (BDI_K57-E168) came out at 7.4 nM; at BRD4 (BDII_E352-M457), 4.1 nM.
Taken in the same sequence, the figures for `Cn1cc(-c2cc(S(C)(=O)=O)ccc2Oc2cccc(NCc3cc(F)cc(F)c3)c2)c2cc[nH]c2c1=O` [Example 73, 4-[2-{3-[(3,5-difluorobenzyl)amino]phenoxy}-5-(methylsulfonyl)phenyl]-6-methyl-1,6-dihydro-7H-pyrrolo[2,3-c]pyridin-7-one] were 5.6 nM and 3.5 nM.
The corresponding values for `CN(C)CCCOc1ccc(CNc2cccc(Oc3ccc(S(C)(=O)=O)cc3-c3cn(C)c(=O)c4[nH]ccc34)c2)cc1` [Example 74, 4-{2-[3-({4-[3-(dimethylamino)propoxy]benzyl}amino)phenoxy]-5-(methylsulfonyl)phenyl}-6-methyl-1,6-dihydro-7H-pyrrolo[2,3-c]pyridin-7-one] are 4.3 nM and 1.4 nM.
As to `CN(C)c1cccc(CNc2cccc(Oc3ccc(S(C)(=O)=O)cc3-c3cn(C)c(=O)c4[nH]ccc34)c2)c1` [Example 75, 4-[2-(3-{[3-(dimethylamino)benzyl]amino}phenoxy)-5-(methylsulfonyl)phenyl]-6-methyl-1,6-dihydro-7H-pyrrolo[2,3-c]pyridin-7-one], the Ki on BRD4 (BDI_K57-E168) was found to be 8.5 nM; on BRD4 (BDII_E352-M457), 2.9 nM.
The corresponding values for `Cn1cc(-c2cc(S(C)(=O)=O)ccc2Oc2cccc(NCc3ccc4c(c3)OCCO4)c2)c2cc[nH]c2c1=O` [Example 76, 4-[2-{3-[(2,3-dihydro-1,4-benzodioxin-6-ylmethyl)amino]phenoxy}-5-(methylsulfonyl)phenyl]-6-methyl-1,6-dihydro-7H-pyrrolo[2,3-c]pyridin-7-one] are 3.3 nM and 1.1 nM.
Regarding `Cn1cc(-c2cc(S(C)(=O)=O)ccc2Oc2cccc(NCC3CCOC3)c2)c2cc[nH]c2c1=O` (stereo not drawn) [Example 77, 6-methyl-4-[5-(methylsulfonyl)-2-{3-[(tetrahydrofuran-3-ylmethyl)amino]phenoxy}phenyl]-1,6-dihydro-7H-pyrrolo[2,3-c]pyridin-7-one], the Ki was found to be 11 nM on BRD4 (BDI_K57-E168) and 2.8 nM on BRD4 (BDII_E352-M457).
Taken in the same sequence, the figures for `CC(=O)Nc1ccc(CNc2cccc(Oc3ccc(S(C)(=O)=O)cc3-c3cn(C)c(=O)c4[nH]ccc34)c2)cc1` [Example 78, N-{4-[({3-[2-(6-methyl-7-oxo-6,7-dihydro-1H-pyrrolo[2,3-c]pyridin-4-yl)-4-(methylsulfonyl)phenoxy]phenyl}amino)methyl]phenyl}acetamide] were 0.9 nM and 0.6 nM.
Taken in the same sequence, the figures for `COc1ccc(CNc2cccc(Oc3ccc(S(C)(=O)=O)cc3-c3cn(C)c(=O)c4[nH]ccc34)c2)cc1` [Example 79, 4-[2-{3-[(4-methoxybenzyl)amino]phenoxy}-5-(methylsulfonyl)phenyl]-6-methyl-1,6-dihydro-7H-pyrrolo[2,3-c]pyridin-7-one] were 7.8 nM and 2.7 nM.
Taken in the same sequence, the figures for `Cn1cc(-c2cc(S(C)(=O)=O)ccc2Oc2cccc(NCC3CC3)c2)c2cc[nH]c2c1=O` [Example 80, 4-[2-{3-[(cyclopropylmethyl)amino]phenoxy}-5-(methylsulfonyl)phenyl]-6-methyl-1,6-dihydro-7H-pyrrolo[2,3-c]pyridin-7-one] were 19 nM and 4.6 nM.
For the molecule `Cn1cc(-c2cc(S(C)(=O)=O)ccc2Oc2cccc(NCCC3CCCC3)c2)c2cc[nH]c2c1=O` [Example 81, 4-[2-{3-[(2-cyclopentylethyl)amino]phenoxy}-5-(methylsulfonyl)phenyl]-6-methyl-1,6-dihydro-7H-pyrrolo[2,3-c]pyridin-7-one], the Ki on BRD4 (BDI_K57-E168) amounted to 35 nM; on BRD4 (BDII_E352-M457), 10 nM.
Taken in the same sequence, the figures for `CCS(=O)(=O)c1ccc(Oc2ccc(Cl)cc2C#CCN2CCOCC2)c(-c2cn(C)c(=O)c3[nH]ccc23)c1` [Example 82, 4-[2-{4-chloro-2-[3-(morpholin-4-yl)prop-1-yn-1-yl]phenoxy}-5-(ethylsulfonyl)phenyl]-6-methyl-1,6-dihydro-7H-pyrrolo[2,3-c]pyridin-7-one] were 39 nM and 8.5 nM.
Taken in the same sequence, the figures for `CCS(=O)(=O)c1ccc(Oc2ccc(Cl)cc2CCCN2CCOCC2)c(-c2cn(C)c(=O)c3[nH]ccc23)c1` [Example 83, 4-[2-{4-chloro-2-[3-(morpholin-4-yl)propyl]phenoxy}-5-(ethylsulfonyl)phenyl]-6-methyl-1,6-dihydro-7H-pyrrolo[2,3-c]pyridin-7-one] were 5.3 nM and 3.5 nM.
The corresponding values for `Cn1cc(-c2cc(S(C)(=O)=O)ccc2NC2CCN(S(=O)(=O)c3ccccc3)CC2)c2cc[nH]c2c1=O` [Example 84, 6-methyl-4-[5-(methylsulfonyl)-2-{[1-(phenylsulfonyl)piperidin-4-yl]amino}phenyl]-1,6-dihydro-7H-pyrrolo[2,3-c]pyridin-7-one] are 4.7 nM and 8.9 nM.
`CN(C)CC(=O)N1CCC(Nc2ccc(S(C)(=O)=O)cc2-c2cn(C)c(=O)c3[nH]ccc23)CC1` [Example 85, 4-[2-({1-[(dimethylamino)acetyl]piperidin-4-yl}amino)-5-(methylsulfonyl)phenyl]-6-methyl-1,6-dihydro-7H-pyrrolo[2,3-c]pyridin-7-one]: the inhibition constant Ki was determined as 8 nM at BRD4 (BDI_K57-E168) and 60 nM at BRD4 (BDII_E352-M457).
The corresponding values for `CSCCCN1CCC(Nc2ccc(S(C)(=O)=O)cc2-c2cn(C)c(=O)c3[nH]ccc23)CC1` [Example 86, 6-methyl-4-[2-({1-[3-(methylsulfanyl)propyl]piperidin-4-yl}amino)-5-(methylsulfonyl)phenyl]-1,6-dihydro-7H-pyrrolo[2,3-c]pyridin-7-one] are 24 nM and 75 nM.
As for `CC(=O)Nc1ccc(CN2CCC(Nc3ccc(S(C)(=O)=O)cc3-c3cn(C)c(=O)c4[nH]ccc34)CC2)cc1` [Example 87, N-{4-[(4-{[2-(6-methyl-7-oxo-6,7-dihydro-1H-pyrrolo[2,3-c]pyridin-4-yl)-4-(methylsulfonyl)phenyl]amino}piperidin-1-yl)methyl]phenyl}acetamide], the Ki was 21 nM on BRD4 (BDI_K57-E168) and 34 nM at BRD4 (BDII_E352-M457).
As to `COc1cc(CN2CCC(Nc3ccc(S(C)(=O)=O)cc3-c3cn(C)c(=O)c4[nH]ccc34)CC2)cc(OC)c1OC` [Example 88, 6-methyl-4-[5-(methylsulfonyl)-2-{[1-(3,4,5-trimethoxybenzyl)piperidin-4-yl]amino}phenyl]-1,6-dihydro-7H-pyrrolo[2,3-c]pyridin-7-one], the Ki came out at 4.9 nM on BRD4 (BDI_K57-E168) and 23 nM on BRD4 (BDII_E352-M457).
Consider `Cn1cc(-c2cc(S(C)(=O)=O)ccc2NC2CCN(Cc3cccs3)CC2)c2cc[nH]c2c1=O` [Example 89, 6-methyl-4-[5-(methylsulfonyl)-2-{[1-(thiophen-2-ylmethyl)piperidin-4-yl]amino}phenyl]-1,6-dihydro-7H-pyrrolo[2,3-c]pyridin-7-one], for which the Ki was 22 nM at BRD4 (BDI_K57-E168) and 44 nM at BRD4 (BDII_E352-M457).
The corresponding values for `CN(C)CCCOc1ccc(CN2CCC(Nc3ccc(S(C)(=O)=O)cc3-c3cn(C)c(=O)c4[nH]ccc34)CC2)cc1` [Example 90, 4-{2-[(1-{4-[3-(dimethylamino)propoxy]benzyl}piperidin-4-yl)amino]-5-(methylsulfonyl)phenyl}-6-methyl-1,6-dihydro-7H-pyrrolo[2,3-c]pyridin-7-one] are 14 nM and 25 nM.
The corresponding values for `CSCC(=O)N1CCC(Nc2ccc(S(C)(=O)=O)cc2-c2cn(C)c(=O)c3[nH]ccc23)CC1` [Example 91, 6-methyl-4-[2-({1-[(methylsulfanyl)acetyl]piperidin-4-yl}amino)-5-(methylsulfonyl)phenyl]-1,6-dihydro-7H-pyrrolo[2,3-c]pyridin-7-one] are 5 nM and 7.5 nM.
The corresponding values for `COc1ccc(CCC(=O)N2CCC(Nc3ccc(S(C)(=O)=O)cc3-c3cn(C)c(=O)c4[nH]ccc34)CC2)c(OC)c1OC` [Example 92, 6-methyl-4-[5-(methylsulfonyl)-2-({1-[3-(2,3,4-trimethoxyphenyl)propanoyl]piperidin-4-yl}amino)phenyl]-1,6-dihydro-7H-pyrrolo[2,3-c]pyridin-7-one] are 15 nM and 33 nM.
`Cn1cc(-c2cc(S(C)(=O)=O)ccc2NC2CCN(C(=O)C3(C(N)=O)CC3)CC2)c2cc[nH]c2c1=O` [Example 93, 1-[(4-{[2-(6-methyl-7-oxo-6,7-dihydro-1H-pyrrolo[2,3-c]pyridin-4-yl)-4-(methylsulfonyl)phenyl]amino}piperidin-1-yl)carbonyl]cyclopropanecarboxamide]: the Ki on BRD4 (BDI_K57-E168) was 19 nM; on BRD4 (BDII_E352-M457), 24 nM.
